Our source for the IC50, Activity and inhibition values is ChEMBL document CHEMBL4229504, “Incorporation of histone deacetylase inhibitory activity into the core of tamoxifen - A new hybrid design paradigm” (Bioorg Med Chem, 2018).

By IC50 is commonly meant the concentration that inhibits the measured activity by half.

Calls of active or inactive are those of the source. The rule behind the calls is not given here.

Data set [1] concerns the target T1, Estrogen receptor (Homo sapiens, UniProt P03372).
T1 sequence (P03372 whole entry): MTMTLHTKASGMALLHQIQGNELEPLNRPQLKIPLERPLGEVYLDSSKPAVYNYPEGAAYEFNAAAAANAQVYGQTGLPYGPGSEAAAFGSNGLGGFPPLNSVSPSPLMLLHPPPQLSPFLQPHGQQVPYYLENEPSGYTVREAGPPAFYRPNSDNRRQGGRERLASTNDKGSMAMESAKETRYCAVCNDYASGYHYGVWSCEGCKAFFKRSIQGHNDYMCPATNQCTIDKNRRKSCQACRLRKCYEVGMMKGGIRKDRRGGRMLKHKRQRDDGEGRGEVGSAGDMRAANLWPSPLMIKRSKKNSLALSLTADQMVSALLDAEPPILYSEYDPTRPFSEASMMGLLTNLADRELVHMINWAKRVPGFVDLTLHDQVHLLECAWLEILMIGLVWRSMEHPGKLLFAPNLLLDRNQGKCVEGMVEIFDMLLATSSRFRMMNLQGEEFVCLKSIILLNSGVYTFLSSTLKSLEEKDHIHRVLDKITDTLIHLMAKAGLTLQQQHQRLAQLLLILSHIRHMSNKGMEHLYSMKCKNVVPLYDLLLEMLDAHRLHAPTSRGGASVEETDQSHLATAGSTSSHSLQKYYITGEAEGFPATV
The experiment in a line: Antagonist activity at recombinant human ERalpha expressed in HEK293 cells assessed as inhibition of estradiol-induced YFP-fused SRC1 coactivator recruitment measured after 1 hr in presence of Coelenterazine H by BRET assay. It counts as cell-based. In general terms: Bioluminescence resonance energy transfer reports proximity on the nanometre scale.

Data set [2] addresses T1, Estrogen receptor. Description: Partial agonist activity at recombinant human ERalpha expressed in HEK293 cells assessed as YFP-fused SRC1 coactivator recruitment measured after 1 hr in presence of Coelenterazine H by BRET assay. Type of data set: cell-based. As to conditions: hek293, 1 h.
The target of data set [3] is T2, Protein deacetylase HDAC6 (Homo sapiens, UniProt Q9UBN7).
T2 sequence (Q9UBN7 whole entry): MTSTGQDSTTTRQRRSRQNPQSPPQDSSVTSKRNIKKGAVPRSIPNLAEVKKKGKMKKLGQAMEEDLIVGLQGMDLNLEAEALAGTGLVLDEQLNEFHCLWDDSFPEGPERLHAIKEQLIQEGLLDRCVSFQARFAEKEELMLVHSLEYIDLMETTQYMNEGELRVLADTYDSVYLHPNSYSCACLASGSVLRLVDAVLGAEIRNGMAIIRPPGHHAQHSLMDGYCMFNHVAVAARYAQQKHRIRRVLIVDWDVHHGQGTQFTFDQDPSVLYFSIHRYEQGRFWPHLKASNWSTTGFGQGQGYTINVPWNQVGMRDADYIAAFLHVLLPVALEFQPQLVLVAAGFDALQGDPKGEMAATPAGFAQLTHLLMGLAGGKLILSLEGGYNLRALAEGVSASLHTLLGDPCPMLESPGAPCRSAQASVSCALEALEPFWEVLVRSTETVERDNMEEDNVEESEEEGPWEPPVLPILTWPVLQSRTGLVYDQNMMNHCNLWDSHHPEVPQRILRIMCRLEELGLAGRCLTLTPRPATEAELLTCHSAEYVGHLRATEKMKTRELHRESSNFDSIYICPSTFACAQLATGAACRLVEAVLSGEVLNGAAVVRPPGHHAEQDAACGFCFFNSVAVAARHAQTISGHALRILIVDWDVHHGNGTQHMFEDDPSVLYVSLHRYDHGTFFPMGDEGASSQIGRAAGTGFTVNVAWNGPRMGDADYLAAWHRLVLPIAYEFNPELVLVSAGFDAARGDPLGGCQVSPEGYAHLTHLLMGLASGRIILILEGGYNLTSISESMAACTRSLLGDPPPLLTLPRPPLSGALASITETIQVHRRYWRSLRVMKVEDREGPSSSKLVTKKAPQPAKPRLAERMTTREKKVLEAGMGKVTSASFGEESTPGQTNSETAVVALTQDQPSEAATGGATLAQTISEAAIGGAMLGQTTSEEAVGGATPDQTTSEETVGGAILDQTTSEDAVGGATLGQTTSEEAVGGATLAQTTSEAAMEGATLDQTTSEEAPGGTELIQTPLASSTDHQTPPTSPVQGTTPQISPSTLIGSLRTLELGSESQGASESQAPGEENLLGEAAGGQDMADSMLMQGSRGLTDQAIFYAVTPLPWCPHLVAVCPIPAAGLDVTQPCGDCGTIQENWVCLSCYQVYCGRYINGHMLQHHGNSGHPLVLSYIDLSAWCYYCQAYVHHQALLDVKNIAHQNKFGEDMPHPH
Description: Inhibition of full length recombinant human N-terminal GST-tagged HDAC6 expressed in Sf9 cells using Ac-Leu-Gly-Lys(Ac)-AMC as substrate measured after 30 mins by fluorescence assay.

Data set [4] concerns the target Histone deacetylase 3/Nuclear receptor corepressor 2 (HDAC3/NCoR2) (Homo sapiens, UniProt O15379). Description: Inhibition of human full length C-terminal His-tagged HDAC3/N-terminal GST-tagged human NCOR2 (395 to 489 residues) expressed in baculovirus expression system using Ac-Leu-Gly-Lys(Ac)-AMC as substrate measured after 30 mins by fluorescence assay.
Data set [5] deals with MCF7. Description: Cytotoxicity against ER positive human MCF7 cells treated every 2 days for 4 days measured post last dose by CellTiter-Glo luminescence assay. Type of data set: functional, cell-based. For orientation: In ATP-based viability assays light output follows the ATP content of the culture.
For data set [6], the system named is MCF7. Description: Cytotoxicity against ER positive human MCF7 cells treated every 2 days for 4 days measured after 7 days by CellTiter-Glo luminescence assay. Type of data set: functional, cell-based.
In data set [7] the test system is MDA-MB-231. Description: Cytotoxicity against ER negative human MDA-MB-231 cells treated every 2 days for 4 days measured post last dose by CellTiter-Glo luminescence assay. Type of data set: functional, cell-based.
Data set [8] relates to MDA-MB-231. Description: Cytotoxicity against ER negative human MDA-MB-231 cells treated every 2 days for 4 days measured after 7 days by CellTiter-Glo luminescence assay. It counts as functional, cell-based.
Data set [9] has as its system MCF-10A. The experiment in a line: Cytotoxicity against ER negative human MCF10A cells treated every 2 days for 4 days measured post last dose by CellTiter-Glo luminescence assay. Type of data set: functional, cell-based.
For data set [10], the system named is MCF-10A. The experiment in a line: Cytotoxicity against ER negative human MCF10A cells treated every 2 days for 4 days measured after 7 days by CellTiter-Glo luminescence assay. Type of data set: functional, cell-based.
For data set [11], the target named is T3, Histone deacetylase 6/3 (Homo sapiens) (UniProt O15379+Q9UBN7). The experiment in a line: Inhibition of HDAC6/HDAC3 in human MCF7 cells assessed as induction of SREBF1 mRNA expression at 5 uM after 24 hrs by QIAzol reagent based RT-qPCR analysis. Type of data set: cell-based.
T3 sequence (O15379 whole entry, looked up, one chain of several): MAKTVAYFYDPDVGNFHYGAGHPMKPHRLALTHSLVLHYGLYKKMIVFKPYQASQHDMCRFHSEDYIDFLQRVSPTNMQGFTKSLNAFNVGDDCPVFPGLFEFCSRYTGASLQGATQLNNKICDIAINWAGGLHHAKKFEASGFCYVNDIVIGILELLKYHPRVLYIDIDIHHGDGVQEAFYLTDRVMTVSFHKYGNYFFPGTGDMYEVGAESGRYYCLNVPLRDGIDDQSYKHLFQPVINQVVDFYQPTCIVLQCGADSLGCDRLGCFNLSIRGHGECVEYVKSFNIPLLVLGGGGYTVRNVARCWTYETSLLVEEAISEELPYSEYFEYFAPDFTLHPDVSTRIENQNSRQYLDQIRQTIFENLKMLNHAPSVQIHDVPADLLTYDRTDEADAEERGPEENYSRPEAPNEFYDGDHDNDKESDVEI
For data set [12], the target named is T3, Histone deacetylase 6/3 (Homo sapiens). Description: Inhibition of HDAC6/HDAC3 in human MCF7 cells assessed as induction of CTGF mRNA expression at 5 uM after 24 hrs by QIAzol reagent based RT-qPCR analysis. It counts as cell-based. (In general: Quantitative PCR measures a nucleic acid by following its amplification.)
Data set [13] has the same target. The experiment in a line: Inhibition of HDAC6/HDAC3 in human MCF7 cells assessed as induction of CDKN1A mRNA expression at 5 uM after 24 hrs by QIAzol reagent based RT-qPCR analysis. It counts as cell-based.
Data set [14] deals with T4, Estrogen receptor (Homo sapiens) (UniProt P03372).
T4 sequence (whole entry): T1 sequence (P03372 whole entry)
The experiment in a line: Antagonist activity at recombinant human ERalpha expressed in HEK293 cells assessed as inhibition of estradiol-induced YFP-fused SRC1 coactivator recruitment at higher concentration measured after 1 hr in presence of Coelenterazine H by BRET assay. It counts as cell-based.

Data set [15] addresses Histone deacetylase 3 (Homo sapiens) (UniProt O15379). Description: Inhibition of HDAC3 in human MCF7 cells assessed as increase in acetylated histone H4 expression at 0.1 to 9 uM after 8 hrs by Western blot analysis. Type of data set: cell-based.
The target of data set [16] is T5, Protein deacetylase HDAC6 (Homo sapiens) (UniProt Q9UBN7).
T5 sequence (whole entry): T2 sequence (Q9UBN7 whole entry)
The experiment in a line: Inhibition of HDAC6 in human MCF7 cells assessed as increase in acetylated alpha-tubulin expression at 0.1 to 9 uM after 8 hrs by Western blot analysis. Type of data set: cell-based.

Sequence of Histone deacetylase 3/Nuclear receptor corepressor 2 (HDAC3/NCoR2) (O15379 whole entry, the tested form may be a part): as the sequence (O15379 whole entry, looked up, one chain of several) above
Sequence of Histone deacetylase 3/Nuclear receptor corepressor 2 (HDAC3/NCoR2) (Q9Y618 whole entry, further chain, the tested form may be a part): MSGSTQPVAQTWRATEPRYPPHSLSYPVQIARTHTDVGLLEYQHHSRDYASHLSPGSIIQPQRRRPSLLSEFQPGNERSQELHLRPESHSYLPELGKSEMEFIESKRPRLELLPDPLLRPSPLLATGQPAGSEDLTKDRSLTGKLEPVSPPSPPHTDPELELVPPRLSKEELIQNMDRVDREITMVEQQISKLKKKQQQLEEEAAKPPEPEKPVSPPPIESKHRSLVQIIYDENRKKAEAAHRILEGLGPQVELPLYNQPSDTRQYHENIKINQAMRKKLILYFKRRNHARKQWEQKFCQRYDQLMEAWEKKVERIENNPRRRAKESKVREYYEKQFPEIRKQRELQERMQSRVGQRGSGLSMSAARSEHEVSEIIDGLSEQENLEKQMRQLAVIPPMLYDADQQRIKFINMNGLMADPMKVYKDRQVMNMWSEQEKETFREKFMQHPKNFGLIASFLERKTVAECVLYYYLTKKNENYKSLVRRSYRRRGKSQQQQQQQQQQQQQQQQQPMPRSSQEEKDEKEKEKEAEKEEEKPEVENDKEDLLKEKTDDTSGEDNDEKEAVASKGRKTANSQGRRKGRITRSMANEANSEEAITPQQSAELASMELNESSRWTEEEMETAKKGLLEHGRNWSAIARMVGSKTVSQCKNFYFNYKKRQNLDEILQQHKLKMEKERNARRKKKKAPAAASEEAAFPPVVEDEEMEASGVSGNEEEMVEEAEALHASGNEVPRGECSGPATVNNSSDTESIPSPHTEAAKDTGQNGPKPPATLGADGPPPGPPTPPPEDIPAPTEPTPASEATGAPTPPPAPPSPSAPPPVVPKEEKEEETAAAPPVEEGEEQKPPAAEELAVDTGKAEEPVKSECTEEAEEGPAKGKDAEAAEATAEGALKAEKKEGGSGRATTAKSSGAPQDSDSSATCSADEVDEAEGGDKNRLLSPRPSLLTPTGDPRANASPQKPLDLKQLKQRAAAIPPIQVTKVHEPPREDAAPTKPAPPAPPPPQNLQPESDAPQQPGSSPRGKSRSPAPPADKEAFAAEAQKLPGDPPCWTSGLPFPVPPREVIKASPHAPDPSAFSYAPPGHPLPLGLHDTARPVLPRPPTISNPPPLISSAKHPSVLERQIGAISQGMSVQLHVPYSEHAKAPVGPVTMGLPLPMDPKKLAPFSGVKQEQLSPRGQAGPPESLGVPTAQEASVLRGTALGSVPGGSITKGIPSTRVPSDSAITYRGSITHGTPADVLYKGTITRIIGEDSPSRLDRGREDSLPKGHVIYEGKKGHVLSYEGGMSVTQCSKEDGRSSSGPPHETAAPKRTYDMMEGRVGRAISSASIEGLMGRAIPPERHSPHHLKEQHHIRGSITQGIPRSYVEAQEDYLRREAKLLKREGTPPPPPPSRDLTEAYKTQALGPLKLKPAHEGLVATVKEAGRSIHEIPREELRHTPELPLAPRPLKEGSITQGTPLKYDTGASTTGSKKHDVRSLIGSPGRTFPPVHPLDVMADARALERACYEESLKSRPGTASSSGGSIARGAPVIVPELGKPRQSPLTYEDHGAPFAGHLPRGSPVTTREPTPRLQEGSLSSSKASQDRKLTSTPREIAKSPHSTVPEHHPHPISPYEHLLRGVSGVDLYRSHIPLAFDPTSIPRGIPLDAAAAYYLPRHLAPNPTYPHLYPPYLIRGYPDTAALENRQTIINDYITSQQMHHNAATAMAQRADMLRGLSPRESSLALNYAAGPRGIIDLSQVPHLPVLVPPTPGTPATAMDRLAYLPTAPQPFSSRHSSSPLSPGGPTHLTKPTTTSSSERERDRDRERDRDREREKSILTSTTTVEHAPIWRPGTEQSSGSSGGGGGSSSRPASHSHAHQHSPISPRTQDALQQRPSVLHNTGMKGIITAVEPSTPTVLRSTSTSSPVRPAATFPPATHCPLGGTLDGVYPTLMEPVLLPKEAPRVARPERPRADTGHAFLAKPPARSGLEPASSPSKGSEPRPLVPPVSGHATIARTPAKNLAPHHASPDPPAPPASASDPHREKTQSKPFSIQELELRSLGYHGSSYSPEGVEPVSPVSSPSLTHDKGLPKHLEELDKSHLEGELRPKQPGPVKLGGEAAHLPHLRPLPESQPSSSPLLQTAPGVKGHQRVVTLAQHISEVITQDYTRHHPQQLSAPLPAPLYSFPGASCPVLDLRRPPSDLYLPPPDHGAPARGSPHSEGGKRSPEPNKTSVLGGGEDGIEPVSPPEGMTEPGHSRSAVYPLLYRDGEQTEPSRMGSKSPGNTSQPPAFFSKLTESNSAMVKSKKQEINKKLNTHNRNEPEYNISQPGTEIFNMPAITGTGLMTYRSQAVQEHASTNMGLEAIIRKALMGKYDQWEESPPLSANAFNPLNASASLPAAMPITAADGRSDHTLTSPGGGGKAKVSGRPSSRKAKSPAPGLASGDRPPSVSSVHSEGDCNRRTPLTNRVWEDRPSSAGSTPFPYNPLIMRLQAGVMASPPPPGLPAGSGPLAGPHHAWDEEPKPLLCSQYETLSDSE
Sequence of Histone deacetylase 3 (Homo sapiens) (O15379 whole entry): as the sequence (O15379 whole entry, looked up, one chain of several) above

With `CC/C(=C(\c1ccc(O)cc1)c1ccc(OCCN(C)C)cc1)c1ccc(OCCCCC(=O)NO)cc1`, the IC50 amounted to 0.8 µM in [1]; 1.78 µM in [3]; 2.1 µM in data set [4]; 2.9 µM in data set [5]; 1.2 µM in data set [6]. The Activity entry in data set [2] is reported as “Not Active”.

Take `CC/C(=C(\c1ccc(O)cc1)c1ccc(OCCN(C)C)cc1)c1ccc(CCCCC(=O)NO)cc1`: the IC50 in data set [1] stood at 0.82 µM; in data set [3], 0.3 µM; in data set [4], 0.734 µM; in data set [5] it was 1.3 µM; in data set [6], 0.79 µM; in data set [7], 1.27 µM. Further, the IC50 turned out to be 1.1 µM in data set [8], 2.17 µM in data set [9] and 1.83 µM in data set [10]. Besides, the Activity entry in [2] is on record as “Not Active”. The inhibition entry in data set [11], in [12] and in [13] was “Active” throughout.

Consider `CC/C(=C(\c1ccc(O)cc1)c1ccc(OCCN(C)C)cc1)c1ccc(/C=C/C(=O)NO)cc1`, for which the Activity entry in data set [2] was “Not Active”. In addition, the IC50 in [3] was determined as 0.519 µM; in data set [4], 6.72 µM; in [5] it was 4.8 µM; in data set [6], 2.7 µM. The inhibition entry in data set [14] was “Active”.

On to `CCC(=C(c1ccc(O)cc1)c1ccc(OCCN(C)C)cc1)c1ccccc1`, for which the IC50 in [5] was determined as 3.9 µM; in [6], 3.3 µM; in data set [7], 3.5 µM; in data set [8] it was 2.5 µM; in data set [9], 4 µM; in [10], 4 µM. For the same molecule, the inhibition result in data set [15], in [16], in data set [11], in [12] and in data set [13] was “inactive” throughout.

Take `CC/C(=C(\c1ccc(O)cc1)c1ccc(OCCN(C)C)cc1)c1ccc(CCC(=O)NO)cc1`: the IC50 amounted to 1.94 µM in data set [1]; 0.484 µM in data set [3]; 2.01 µM in data set [4]; 3.6 µM in [5]; 1.8 µM in data set [6]. For the same molecule, the Activity entry in data set [2] is given as “Not Active”.

Regarding `CC/C(=C(\c1ccc(O)cc1)c1ccc(OCCN(C)C)cc1)c1ccc(C(=O)NO)cc1`, the results for the IC50 in data set [1] and in [3] were 1.12 µM and 71.9 µM, respectively. In addition, the Activity result in data set [2] is recorded as “Not Active”.
